Measurements from PMC7525093, “Bis-Quinolinium Cyclophane Blockers of SK Potassium Channels Are Antagonists of M3 Muscarinic Acetylcholine Receptors” (Frontiers in Pharmacology, 2020).
Where “and” joins values, the source holds several entries; their conditions need not be identical. Equal values may be shown once.

Legend:
mouse lung lower airways = assay: Bronchial diameter changes in mouse lung slices; details: 3.5 μM UCL 1684; 0.5 μM carbachol
Method: Experiments using mouse lung slices were conducted as described ([Sanderson, 2011]). Eight-week-old Balb/C mice were sacrificed by deep isoflurane anesthesia followed by cervical dislocation. Trachea were isolated, cannulated with a blunt needle and the lungs filled with 3 ml of Hanks balanced salt solution (HBSS) with 2% low-temperature melt agarose at 37°C followed by 0.5 ml of air to clear the airways of agarose. The mouse thoracic cavity was exposed and the lungs chilled with an ice bath. After gelling of the agarose, the lungs were removed and 200 μm sections made with a Leica Vibratome VT1200. The sections were placed in DMEM in a tissue-culture incubator at 37°C for up to 8 h. Experiments measuring diameter changes were conducted using an inverted 10X phase contrast objective and oblique lighting in a constant perfusion (0.5 ml/min) bath of HBSS at 22°C solution.

SK potassium channels = details: ref Campos Rosa et al., 1996; read-out: IC50, block of SK channels; cited from earlier work
histamine receptor H1 = molecular target: T1, histamine receptor H1 (Homo sapiens, UniProt P35367); assay: R-CEPIAer ER calcium assay, CHO cells transfected with H1 receptor; type: cell-based; details: data not shown
T1 construct: expressed in transfected cells; host or cells: CHO cells, transiently co-transfected with pCMV R-CEPIAer
T1 sequence (P35367 whole entry): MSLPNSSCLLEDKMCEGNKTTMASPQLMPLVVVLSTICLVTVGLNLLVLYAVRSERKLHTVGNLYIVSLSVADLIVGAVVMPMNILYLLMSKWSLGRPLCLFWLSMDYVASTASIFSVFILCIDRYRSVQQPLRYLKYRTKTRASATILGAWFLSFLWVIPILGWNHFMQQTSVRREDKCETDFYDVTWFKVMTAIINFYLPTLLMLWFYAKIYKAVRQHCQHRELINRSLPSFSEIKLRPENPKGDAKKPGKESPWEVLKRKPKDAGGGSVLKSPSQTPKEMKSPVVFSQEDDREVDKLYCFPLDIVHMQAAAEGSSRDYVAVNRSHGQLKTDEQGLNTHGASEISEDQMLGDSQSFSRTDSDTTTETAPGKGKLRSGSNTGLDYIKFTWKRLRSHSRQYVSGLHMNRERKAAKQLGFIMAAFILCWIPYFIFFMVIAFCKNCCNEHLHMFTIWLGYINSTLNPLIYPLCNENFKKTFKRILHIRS
Method: The binding of antagonists to Gq-coupled receptors was determined by measuring IP3-mediated calcium depletion from the endoplasmic reticulum (ER). This was accomplished using CHO-K1 cells stably transfected with human M3 muscarinic acetylcholine receptor (CEM3000000, cDNA Resource Center, Bloomsburg University) and R-CEPIAer, a low affinity ER-targeted calcium indicator fluorescent protein ([Suzuki et al., 2014]). R-CEPIAer reporting of ER calcium concentration was assessed using 564 nm excitation light (>590 long-pass emission) at 20 second intervals on a Nikon swept-field confocal microscope using slit-scan mode, 2x2 Binning, and 100 millisecond frames. F/Fmax was fluorescence intensity normalized to maximal fluorescence intensity during the experiment. The response of cells to Gq-coupled receptor agonist were measured as the change in F/Fmax (ΔF/Fmax) from preagonist value to fluorescence minimum during agonist application (that occurs by IP3-mediated ER calcium depletion). […] Perfusion of each agonist application was for 2 min, while the antagonist overlapped and preceded the second agonist application by 3 min. […] IC50 was calculated by assaying fractional inhibition using a dose-response of antagonist concentrations (i.e. Figure 1D ). […]

SK2 = molecular target: SK2; design: method as in Benton D.C. et al., 2013; details: 125I-Apamin competition; ref Benton D.C. et al., 2013; read-out: Ki, SK2 channels; cited from earlier work
[1] = system: rat primary tracheal smooth muscle cells; assay: Cytosolic calcium imaging in rat tracheal smooth muscle cells; type: cell-based
Method: Rat trachea were isolated as described above, except that a guillotine was used for sacrifice instead of cervical dislocation. The dorsal muscle layer was removed from the hyaline cartilage rings and minced into ~1-mm fragments in Ca^2+-free HEPES-buffered Krebs solution (140 mM NaCl, 4.7 mM KCl, 1.13 mM MgCl2, 10 mM HEPES, 10 mM glucose, pH 7.3). The tracheal smooth muscle (TSM) fragments were digested with 2.5 U/ml papain (MP Biomedicals) with 1 mg/ml BSA fraction V and 1 mg/ml dithiothreitol at 37°C on a rocking platform (250 rotations/min) for 20 min. After washing once with the Ca^2+-free Krebs solution the TSM fragments were digested with 12.5 U/ml of type VII collagenase (Sigma Chemical) for 10 min on a rocking platform at 37°C, washed and centrifuged (750 G for two min.) three times in Ca^2+-free Krebs-BSA solution and gently triturated up to 5 min to disburse single tracheal myocytes. TSM cells were stored on ice in Ca^2+-free Krebs-BSA solution and used the same day.
TSM cells were placed on a coverslip in a 1 ml perfusion chamber on an inverted microscope and incubated with 20 μM Cal-520 AM dye (AAT Bioquest, Sunnyvale, California, USA) in 0.2% Pluronic F-127 and 1 mM probenecid in HBSS at room temperature for 30 min. The chamber was fitted with a top adaptor and coverslip (Warner Instruments, RC37WC) to establish a closed perfusion chamber. […]

aorta = assay: Isometric aortic ring tension measurement; design: species or system mouse; details: 3.5 μM; precontracted to 300 nM phenylephrine
Method: Mice used in these studies were BALB/C mice from Jackson Labs. All animal procedures were reviewed and approved by the University of Texas Health Science Center at San Antonio Institutional Animal Care and Use Committee. For tracheal constriction studies, animals were deeply anesthetized with isoflurane and then sacrificed by cervical dislocation. Isometric tracheal contraction measurements were performed as previously described ([Semenov et al., 2012]). Trachea were removed and surrounding tissues dissected in ice-cold physiologic saline solution (PSS) consisting of 119 mM NaCl, 4.7 mM KCl, 2.0 mM CaCl2, 1.0 mM KH2PO4, 1.17 mM MgSO4, 18 mM NaHCO3, 0.026 mM EDTA, 11 mM glucose, and 12.5 mM sucrose. Trachea were cut below the pharynx and above the primary bronchus bifurcation. Two metal wires, attached to a force transducer and micrometer (Radnoti, LLC), were threaded into the lumen of the trachea. Trachea were placed into an oxygenated organ bath (95% O2, 5% CO2), at 37°C, pH 7.35 (after bubbling with 95% O2–5% CO2). Tracheal resting tension was readjusted to 1 gram over 1 h and then challenged with 67 mM potassium PSS with NaCl adjusted to 56.7 mM to maintain proper osmolarity (KPS). Trachea were challenged two or more times until reproducible contractile responses were achieved. All subsequent experimental drug responses were normalized to the KPS response. […]

c1cc2cc(c1)C[n+]1ccc(c3ccccc31)NCc1ccc(cc1)CNc1cc[n+](c3ccccc13)C2 [UCL 1684, 6,12,19,20,25,26-Hexahydro-5,27:13,18:21,24-trietheno-11,7-metheno-7H-dibenzo [b,n] [1,5,12,16]tetraazacyclotricosine-5,13-diium dibromide]
Bronchial diameter during second carbachol challenge normalized to first challenge (mouse lung lower airways): 178.3% and 178.3 ± 19.0%
IC50 (SK potassium channels): 3 nM
Fractional inhibition of H1 receptor response (histamine receptor H1): -0.008 ± 0.04
Ki (SK2): 1 nM
Calcium response (integral) to second carbachol relative to first ([1]; 3.5 μM UCL 1684, 0.5 μM carbachol, rat TSMC): 0.42 ± 0.04
activity at 3.5 µM ([1]; Rattus norvegicus, read-out: CCH-evoked cytosolic calcium, % of control): 42%
Relaxation response of aorta (aorta): 7.8 ± 4.3
